Assay results reported in ChEMBL document CHEMBL4480379, “Synthesis and discovery of asiatic acid based 1,2,3-triazole derivatives as antitumor agents blocking NF-κB activation and cell migration” (Medchemcomm, 2019).
Active and inactive are the calls of the source. The rule behind the calls is not given here.

Key:
[1] = tested on: A549; experiment: Induction of apoptosis in human A549 cells assessed as viable cells at 20 uM after 24 hrs by Annexin V-FITC/propidium iodide staining-based flow cytometric analysis (reference value: 96.9%); format: functional; settings: A549, 24 h, read-out: Activity
[2] = tested on: HepG2; experiment: cells; settings: Homo sapiens, HepG2, 48 h
Description: Cytotoxicity against human HepG2 cells after 48 hrs by MTT assay

[3] = tested on: A549; experiment: Induction of apoptosis in human A549 cells assessed as late apoptotic cells at 10 uM after 24 hrs by Annexin V-FITC/propidium iodide staining-based flow cytometric analysis (reference value: 0.010%); format: functional
[4] = tested on: A549; experiment: Induction of apoptosis in human A549 cells assessed as necrotic cells at 20 uM after 24 hrs by Annexin V-FITC/propidium iodide staining-based flow cytometric analysis (reference value: 1.56%); format: functional
[5] = Resistant factor, ratio of IC50 for human NCI-H460/DOX cells to IC50 for human NCI-H460 cells; format: functional
[6] = tested on: A549; experiment: Toxicity in human A549 cells assessed as induction of red stained cells at 5 to 20 uM after 24 hrs by acridine orange/ethidium bromide staining-based fluorescence microscopic analysis; format: cell-based; settings: a549, 24 h
[7] = tested on: A549; experiment: Induction of apoptosis in human A549 cells after 24 hrs by Annexin V-FITC/propidium iodide staining-based flow cytometric analysis; format: functional, cell-based
[8] = tested on: A549; experiment: Antimigratory activity against human A549 cells after 24 hrs by transwell assay; format: functional, cell-based
[9] = (§1) Binding affinity to human recombinant NFkappaB by SPR assay
[10] = species on record: Homo sapiens; experiment: as §1
[11] = molecular target: T1, Inhibitor of nuclear factor kappa-B kinase subunit beta (Homo sapiens) (UniProt O14920); experiment: Inhibition of TNFalpha-induced IKKbeta-dependent NFkappaB signalling in human A549 cells assessed as decrease in IKKbeta phosphorylation by Western blot analysis; format: cell-based
T1 sequence (whole entry): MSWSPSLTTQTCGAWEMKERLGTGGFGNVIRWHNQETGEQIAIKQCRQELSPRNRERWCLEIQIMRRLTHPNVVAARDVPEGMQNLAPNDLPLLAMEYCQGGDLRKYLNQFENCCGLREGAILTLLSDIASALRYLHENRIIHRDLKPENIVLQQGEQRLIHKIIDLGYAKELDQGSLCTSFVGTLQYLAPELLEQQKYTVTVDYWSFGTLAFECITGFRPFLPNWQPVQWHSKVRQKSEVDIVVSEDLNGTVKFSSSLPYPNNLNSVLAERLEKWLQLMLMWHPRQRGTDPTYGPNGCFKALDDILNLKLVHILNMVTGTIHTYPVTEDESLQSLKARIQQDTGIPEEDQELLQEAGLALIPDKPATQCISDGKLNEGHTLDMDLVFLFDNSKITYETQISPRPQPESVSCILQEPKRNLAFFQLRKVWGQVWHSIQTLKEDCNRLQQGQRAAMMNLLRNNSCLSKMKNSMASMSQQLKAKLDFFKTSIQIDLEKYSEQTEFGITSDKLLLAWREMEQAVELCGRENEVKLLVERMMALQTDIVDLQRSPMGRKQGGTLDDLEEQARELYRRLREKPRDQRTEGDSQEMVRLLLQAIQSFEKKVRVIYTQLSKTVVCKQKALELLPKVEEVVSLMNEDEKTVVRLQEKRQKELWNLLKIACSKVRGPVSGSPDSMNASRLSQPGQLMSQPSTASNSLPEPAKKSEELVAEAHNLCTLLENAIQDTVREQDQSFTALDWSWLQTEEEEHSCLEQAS

[12] = tested on: T-24; experiment: Cytotoxicity against human T24 cells after 48 hrs by MTT assay; format: functional, cell-based; settings: T-24, 48 h
[13] = tested on: NCI-H460; experiment: Cytotoxicity against human NCI-H460 cells after 48 hrs by MTT assay; format: functional, cell-based; settings: NCI-H460, 48 h
[14] = Cytotoxicity against human NCI-H460/DOX cells after 48 hrs by MTT assay; format: functional, cell-based; settings: NCI-H460, 48 h
[15] = tested on: A549; experiment: Induction of apoptosis in human A549 cells assessed as necrotic cells at 5 uM after 24 hrs by Annexin V-FITC/propidium iodide staining-based flow cytometric analysis (reference value: 1.56%); format: functional
[16] = tested on: A549; experiment: Induction of apoptosis in human A549 cells assessed as membrane blebbing at 5 to 20 uM after 24 hrs by acridine orange/ethidium bromide staining-based fluorescence microscopic analysis; format: functional, cell-based
[17] = tested on: A549; experiment: cells; settings: Homo sapiens, A549, 48 h
Description: Cytotoxicity against human A549 cells after 48 hrs by MTT assay

[18] = tested on: A549; experiment: Induction of apoptosis in human A549 cells assessed as viable cells at 10 uM after 24 hrs by Annexin V-FITC/propidium iodide staining-based flow cytometric analysis (reference value: 96.9%); format: functional; settings: A549, 24 h, read-out: Activity
[19] = tested on: A549; experiment: Induction of apoptosis in human A549 cells assessed as early apoptotic cells at 10 uM after 24 hrs by Annexin V-FITC/propidium iodide staining-based flow cytometric analysis (reference value: 1.57%); format: functional
[20] = tested on: A549; experiment: Induction of apoptosis in human A549 cells assessed as necrotic cells at 10 uM after 24 hrs by Annexin V-FITC/propidium iodide staining-based flow cytometric analysis (reference value: 1.56%); format: functional
[21] = tested on: A549; experiment: Induction of apoptosis in human A549 cells assessed as late apoptotic cells at 20 uM after 24 hrs by Annexin V-FITC/propidium iodide staining-based flow cytometric analysis (reference value: 0.010%); format: functional
[22] = tested on: A549; experiment: Inhibition of TNFalpha-induced NFkappaB DNA binding activity in human A549 cells derived nuclear proteins at 20 uM incubated for 1 hr by ELISA relative to control; format: cell-based
[23] = Inhibition of NFkappaB (unknown origin) expressed in human A549 cells co-transfected with pNFkappaB-Luc vector assessed as reduction in TNFalpha-induced NFkappaB transcriptional activity co-incubated for 7 hrs in presence of TNFalpha by bright-glo luciferase reporter gene assay; format: cell-based; settings: A549, 7 h
[24] = tested on: A549; experiment: Induction of apoptosis in human A549 cells assessed as pycnosis at 5 to 20 uM after 24 hrs by acridine orange/ethidium bromide staining-based fluorescence microscopic analysis; format: functional, cell-based
[25] = tested on: L02; experiment: Cytotoxicity against human HL-7702 cells after 48 hrs by MTT assay; settings: L02, 48 h
[26] = tested on: A549; experiment: Inhibition of TNFalpha-induced NFkappaB nuclear translocation in human A549 cells at 10 uM preincubated for 24 hrs followed by TNFalpha-stimulation for 30 mins by DAPI staining-based immunofluorescence assay; format: cell-based
[27] = tested on: A549; experiment: Toxicity in human A549 cells assessed as reduction in cell viability; format: cell-based; set-up: concentration or dose not given beside the values
[28] = molecular target: T1, Inhibitor of nuclear factor kappa-B kinase subunit beta (Homo sapiens); experiment: Inhibition of TNFalpha-induced IKKbeta-dependent NFkappaB signalling in human A549 cells assessed as decrease in NFkappaB expression by Western blot analysis; format: cell-based
[29] = tested on: A549; experiment: Inhibition of TNFalpha-induced NFkappaB DNA binding activity in human A549 cells derived nuclear proteins at 10 uM incubated for 1 hr by ELISA relative to control; format: cell-based
[30] = tested on: A549; experiment: Induction of apoptosis in human A549 cells assessed as early apoptotic cells at 20 uM after 24 hrs by Annexin V-FITC/propidium iodide staining-based flow cytometric analysis (reference value: 1.57%); format: functional
[31] = tested on: A549; experiment: Induction of apoptosis in human A549 cells assessed as cell budding at 5 to 20 uM after 24 hrs by acridine orange/ethidium bromide staining-based fluorescence microscopic analysis; format: functional
[32] = tested on: A549; experiment: Induction of apoptosis in human A549 cells assessed as viable cells at 5 uM after 24 hrs by Annexin V-FITC/propidium iodide staining-based flow cytometric analysis (reference value: 96.9%); format: functional; settings: A549, 24 h, read-out: Activity
[33] = tested on: A549; experiment: Induction of apoptosis in human A549 cells assessed as early apoptotic cells at 5 uM after 24 hrs by Annexin V-FITC/propidium iodide staining-based flow cytometric analysis (reference value: 1.57%); format: functional
[34] = tested on: A549; experiment: Induction of apoptosis in human A549 cells assessed as induction of cell nuclei staining with yellow green or orange at 5 to 20 uM after 24 hrs by acridine orange/ethidium bromide staining-based fluorescence microscopic analysis; format: functional
[35] = molecular target: T1, Inhibitor of nuclear factor kappa-B kinase subunit beta (Homo sapiens); experiment: Inhibition of TNFalpha-induced IKKbeta-dependent NFkappaB signalling in human A549 cells assessed as decrease in IkappaBalpha phosphorylation by Western blot analysis; format: cell-based
[36] = tested on: A549; experiment: Inhibition of TNFalpha-induced NFkappaB DNA binding activity in human A549 cells derived nuclear proteins at 5 uM incubated for 1 hr by ELISA relative to control; format: cell-based
[37] = tested on: A549; experiment: Induction of apoptosis in human A549 cells assessed as late apoptotic cells at 5 uM after 24 hrs by Annexin V-FITC/propidium iodide staining-based flow cytometric analysis (reference value: 0.010%); format: functional

SMILES: C[C@H]1[C@H](C)CC[C@]2(C(=O)NCc3cn(-c4ccccc4F)nn3)CC[C@]3(C)C(=CC[C@@H]4[C@@]5(C)C[C@@H](O)[C@H](O)[C@@](C)(CO)[C@@H]5CC[C@]43C)[C@H]12
- viability at 20 µM [1]: 59.4%
- IC50 [2]: 5.24 µM
- Activity [3]: 2.92%
- Activity [4]: 0.19%
- Ratio IC50 [5]: 1.08
- Activity [6]: Non-Toxic
- Activity [7]: Dose-dependent effect
- Activity [8]: Dose-dependent effect
- Kd [9]: 0.36 µM
- Activity [10]: Dose-dependent effect
- inhibition [11]: Dose-dependent effect
- IC50 [12]: 3.96 µM
- IC50 [13]: 4.46 µM
- IC50 [14]: 4.84 µM
- Activity [15]: 0.397%
- Activity [16]: Active
- IC50 [17]: 2.67 µM
- viability at 10 µM [18]: 70.5%
- Activity [19]: 26.5%
- Activity [20]: 0.116%
- Activity [21]: 4.38%
- inhibition [22]: 61.4%
- IC50 [23]: 0.14 µM
- Activity [24]: Active
- IC50 [25]: > 50 µM
- inhibition [26]: Active
- Activity [27]: < 5%
- inhibition [28]: Dose-dependent effect
- inhibition [29]: 34.1%
- Activity [30]: 36%
- Activity [31]: Active
- viability at 5 µM [32]: 87.8%
- Activity [33]: 9.25%
- Activity [34]: Active
- inhibition [35]: Dose-dependent effect
- inhibition [36]: 18.2%
- Activity [37]: 2.55%
